Data: article PMC7884259 (Journal of medicinal chemistry, 2020)
Numbering of substitutions follows the chain as printed. Like-named read-outs stand apart in the source and are kept apart here. Where no end group is shown, it is not given here.

Assays:
ATAD2 bromodomain [1] = details: time-resolved fluorescence energy transfer; cited from earlier work
ATAD2 bromodomain [2] = details: cited from earlier work
[3] = molecular target: T1, ATAD2Bshort bromodomain (lacks residues 988–992, VDIEE) (Homo sapiens, UniProt Q9ULI0, DEL988-992); assay: ITC binding to the ATAD2Bshort splice variant bromodomain; details: ITC at 5 °C, 20 mM NaH2PO4 pH 7.0, 150 mM NaCl; no binding in duplicate
T1 sequence (Q9ULI0 953-1080 isoform Q9ULI0-2): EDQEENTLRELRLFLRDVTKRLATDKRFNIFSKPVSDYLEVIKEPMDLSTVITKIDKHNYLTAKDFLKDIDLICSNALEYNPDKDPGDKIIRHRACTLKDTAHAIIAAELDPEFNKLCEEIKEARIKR

ATAD2B bromodomain = molecular target: T2, ATAD2B bromodomain (Homo sapiens, UniProt Q9ULI0); assay: ITC binding to the wild-type ATAD2B bromodomain
T2 sequence (Q9ULI0 953-1085): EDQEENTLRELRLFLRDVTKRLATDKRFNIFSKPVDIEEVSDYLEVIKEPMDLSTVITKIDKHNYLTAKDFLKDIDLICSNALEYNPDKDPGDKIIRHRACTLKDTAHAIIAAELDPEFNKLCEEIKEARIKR

[4] = molecular target: T3, ATAD2B bromodomain Y1037A (Homo sapiens, UniProt Q9ULI0, Y1037A); assay: ITC binding to the ATAD2B bromodomain mutant Y1037A; details: ITC at 5 °C, 20 mM NaH2PO4 pH 7.0, 150 mM NaCl; no binding in duplicate
T3 sequence (Q9ULI0 953-1085 Y1037A): T2 sequence (Q9ULI0 953-1085) with Y85A

ATAD2B bromodomain Y995A = molecular target: T4, ATAD2B bromodomain Y995A (Homo sapiens, UniProt Q9ULI0, Y995A); assay: ITC binding to the ATAD2B bromodomain mutant Y995A; details: ITC at 5 °C, 20 mM NaH2PO4 pH 7.0, 150 mM NaCl; no binding in duplicate
T4 sequence (Q9ULI0 953-1085 Y995A): T2 sequence (Q9ULI0 953-1085) with Y43A

Row | Compound | Dissociation constant, ATAD2Bshort bromodomain [3] | Dissociation constant, Y1037A ATAD2B bromodomain [4] | Dissociation constant, Y995A ATAD2B bromodomain (ATAD2B bromodomain Y995A) | other results
1 | H4K5acK8acK12acK16ac (1–25): tetra-acetylated histone H4 residues 1–25 peptide of the cited TR-FRET assay |  |  |  | recognition by the ATAD2 bromodomain in TR-FRET (ATAD2 bromodomain [1]): recognizes
2 | H4K5acK12ac (1–25): diacetylated histone H4 residues 1–25 peptide of the cited TR-FRET assay |  |  |  | recognition by the ATAD2 bromodomain in TR-FRET (ATAD2 bromodomain [1]): recognizes
3 | RKSTGG(Kac)APRKQ [H3K14ac (res 8–19)] |  |  |  | ATAD2 reported KDs (ATAD2 bromodomain [2]; result is for the H3K14ac res 1–21 peptide): no binding (res 1–21)[14]
4 | 8-(((3R,4R)-3-((1,1-dioxidotetrahydro-2H-thiopyran-4-yl)-methoxy)-piperidin-4-yl)amino)-3-methyl-5-(5-methylpyridin-3-yl)-1,7-naphthyridin-2(1H)-one [compound 38, reference compound] | no binding |  |  | Kd (ATAD2 bromodomain [2]; read-out: ATAD2 reported KDs (binding affinity)): 0.09 µM
5 | LGK(Ac)GGAK(Ac)RHRK-NH2 [H4K12acK16ac (res 10–20)] |  |  |  | Kd (ATAD2B bromodomain): 214 ± 7 µM
6 | GKGGKGLGKGGAKRHRK [H4 unmodified (res 4–17)] | no binding | no binding | no binding | 
7 | SGRGKGGK(Ac)GL-NH2 [H4K8ac (res 1–10)] |  |  |  | ATAD2 reported KDs (no KD available, interaction only) (ATAD2 bromodomain [2]; qualitative): NA, interaction shown[16]
8 | SGRGK(Ac)GGKGL-NH2 [H4K5ac (res 1–10)] | no binding | no binding | no binding | Kd (ATAD2 bromodomain [2]; read-out: ATAD2 reported KDs, value is for the H4K5ac res 1–20 peptide): 22 µM
9 | CC(=O)NCCCC[C@H](NC(=O)CNC(=O)[C@H](CC(C)C)NC(=O)CNC(=O)[C@H](CCCCN)NC(=O)CNC(=O)CNC(=O)[C@H](CCCCN)NC(=O)CN)C(=O)NCC(=O)NCC(=O)N[C@@H](C)C(=O)N[C@@H](CCCCN)C(=O)N[C@@H](CCCNC(=N)N)C(N)=O [H4K12ac (res 4–17)] | no binding | no binding | no binding | Kd (ATAD2B bromodomain): 50.5 ± 5.8 µM; Kd (ATAD2 bromodomain [2]; read-out: ATAD2 reported KDs, value is for the H4K12ac res 1–25 peptide): 2.5 µM
10 | SGRGK(Ac)GGK(Ac)GL-NH2 [H4K5acK8ac (res 1–10)] | no binding | no binding | no binding | 
11 | SGRGK(Ac)QGGKARA-NH2 [H2AK5ac (res 1–12)] | no binding | no binding | no binding | 
